Source: publication PMC9694159 (International Journal of Molecular Sciences, 2022)
“And” between values parts separate entries of the source, which are not always exact repeats. Equal values may be shown once. Read-outs that look alike come from different tables or passages of the source.

Key:
[1] = biological target: T1, human serum albumin (HSA) (Homo sapiens, UniProt P02768); experiment: UV-Vis spectroscopic studies: HSA-induced increase in the absorbance of Heme site ligands; type: binding; details: for Kd at 5 μM: human, human serum albumin (HSA) solution in PBS; for Higher binding constant by Hyperquad evaluation of UV-Vis data: compared with quenching studies and Scatchard plot evaluation
T1 construct: purchased Merck (Darmstadt, Germany) A1653
T1 sequence (P02768 25-609): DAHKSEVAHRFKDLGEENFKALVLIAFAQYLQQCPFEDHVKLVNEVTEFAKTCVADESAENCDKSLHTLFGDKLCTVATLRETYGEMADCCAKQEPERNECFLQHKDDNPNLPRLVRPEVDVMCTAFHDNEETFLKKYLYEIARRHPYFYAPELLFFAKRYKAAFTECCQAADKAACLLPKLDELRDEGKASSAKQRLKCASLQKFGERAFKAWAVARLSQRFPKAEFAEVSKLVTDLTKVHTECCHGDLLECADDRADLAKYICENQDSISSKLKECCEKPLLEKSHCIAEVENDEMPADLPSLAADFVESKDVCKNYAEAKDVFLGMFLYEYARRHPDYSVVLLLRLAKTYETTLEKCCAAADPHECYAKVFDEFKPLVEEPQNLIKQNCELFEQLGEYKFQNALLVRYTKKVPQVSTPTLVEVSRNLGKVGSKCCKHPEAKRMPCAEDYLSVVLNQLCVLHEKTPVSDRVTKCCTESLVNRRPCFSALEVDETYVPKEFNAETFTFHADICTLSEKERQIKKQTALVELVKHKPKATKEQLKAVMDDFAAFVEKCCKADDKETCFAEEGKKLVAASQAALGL
Experimental: UV-Vis spectra were recorded in PBS (pH 7.4) at 25 °C, employing a Jasco V730 UV-Vis spectrophotometer (Tokyo, Japan). Absorption spectra of Heme site ligands (5.0 μM each) have been recorded without and with increasing concentrations of HSA (0.0, 0.2, 0.5, 0.7, 1.0, 1.5, 2.0, 5.0, 10, and 15 μM). Binding constants (K) of ligand–albumin complexes were determined based on the HSA-induced increase in their absorbance (at 480 nm for BIL, at 390 nm for BVD, at 400 nm for HEM, and at 460 nm for MO). […] Binding constants (K; unit: L/mol) were calculated with linear and non-linear fitting, using the Scatchard equation [58] and the Hyperquad2006 software, respectively. The Scatchard equation for 1:1 binding model follows:(1) (A−A0)/[HSA]0=(Aligand−HSA−A0)×K−(A−A0)×K where A0 and A are the absorbance values of the ligand in the absence and presence of HSA, respectively; Aligand-HSA is the absorbance when each ligand molecule bound to HSA, and [HSA] is the concentration of albumin (unit: mol/L).
The following equations are implemented in the Hyperquad program code: (2) aLIGAND+bHSA ↔LIGANDaHSAb (3) βab=[LIGANDaHSAb]/[LIGAND]^a[HSA]^b where a and b indicate the stoichiometry associated with the equilibria in the solution. All equilibrium constants are defined as overall association constants (β):(4) LIGAND+HSA ↔LIGAND HSA; β1=[LIGAND HSA]/[LIGAND][HSA] (5) 2 LIGAND+HSA ↔LIGAND2 HSA; β2=[LIGAND2HSA]/[LIGAND]^2[HSA] (6) aLIGAND+HSA ↔LIGANDaHSA; βa=[LIGANDaHSA]/[LIGAND]^a[HSA]
The stepwise association constants (K) are defined by β:(7) β1=K1; β2=K1×K2; βa=K1×K2×…×Ka
During data evaluation the stoichiometry and association constants of the ligand binding process were calculated using the lowest standard deviation model.

[2] = biological target: T1, human serum albumin (HSA); experiment: Fluorescence quenching of HSA by Heme site ligands; type: binding; details: HSA 2 μM; for Kd / Fluorescence Quenching Hyperquad logK: K unit L/mol; for Kd: read-out: Fluorescence Quenching Hyperquad logK (converted); for Fluorescence Quenching Stern–Volmer Plot logKSV: KSV unit L/mol
Experimental: Fluorescence spectra were recorded in PBS (pH 7.4) at 25 °C, employing a Hitachi F-4500 fluorometer (Tokyo, Japan). Binding constants of BIL, BVD, HEM, and MO were also determined based on fluorescence quenching studies (λex = 295 nm). Emission spectra of HSA (2.0 μM) were recorded in the absence and presence of the increasing concentrations of Heme site ligands (0.0, 0.5, 1.0, 2.0, 3.0, 5.0, 7.0, 10, and 15 μM). Before the evaluation of emission intensity data at 340 nm, the inner-filter effect of ligand molecules was corrected using the following equation [60, 61]:(8) Icor=Iobs×e^(Aex+Aem)/2 where Icor and Iobs are the corrected and observed fluorescence emission intensities, respectively; Aex and Aem are the absorbance values of Heme site ligands at 295 and 340 nm, respectively.

[3] = biological target: T2, WAR–HSA complex (Homo sapiens, UniProt P02768); experiment: Effects of ligands on the fluorescence emission signal of WAR–HSA complex; type: binding; details: WAR 1 μM, HSA 3.5 μM, PBS pH 7.4, λex 317 nm; for Effect on the fluorescence emission signal of WAR (WAR–HSA complex): ligand 0–10 μM, λem 379 nm
T2 construct: purchased Merck (Darmstadt, Germany) A1653
T2 sequence (P02768 25-609, one chain of several): as the sequence (P02768 25-609) above

[4] = biological target: T3, WAR–HSA interaction (Homo sapiens, UniProt P02768); experiment: Ultrafiltration: filtered fraction of WAR in the presence of HSA and ligands; type: binding; details: WAR 1.0 μM, HSA 5.0 μM
T3 construct: purchased Merck (Darmstadt, Germany) A1653
T3 sequence (P02768 25-609): as above
Experimental: Amicon Ultra-0.5 centrifugal filters (Merck, Darmstadt, Germany) with 30 kDa molecular weight cut-off (MWCO) value were applied. […] Before ultrafiltration, filter units were washed once with water (500 μL) then once with PBS (500 μL). […] A 500 μL aliquot of samples was transferred to the filter and centrifuged for 10 min at 7500 g and 25 °C (fixed angle rotor).
(§1) Chromatographic data were evaluated employing ChromNAV2 software (Jasco, Tokyo, Japan). […] Briefly, samples (20 μL) were driven through a guard column (SecurityGuard C18, 4.0 × 3.0 mm; Phenomenex, Torrance, CA, USA) linked to a Nova-Pak C18 analytical column (150 × 3.9 mm, 4 μm; Waters, Milford, MA, USA). The isocratic elution was performed at room temperature with 1.0 mL/min flow rate applying sodium phosphate buffer (20 mM, pH 7.0), methanol, and acetonitrile (70:25:5 v/v%) as the mobile phase.

[5] = biological target: T3, WAR–HSA interaction; experiment: Ultracentrifugation: WAR in the supernatant in the presence of HSA and BIL or MO; type: binding; details: WAR 1.0 μM, HSA 3.0 μM, ligand 5 or 20 μM, PBS pH 7.4; 170,000× g, 16 h, 20 °C; HPLC-FLD
Experimental: With the optimal conditions of ultracentrifugation, we can sediment the albumin fraction of a solution without the disruption of ligand–HSA interactions. Consequently, the free fraction of a ligand can be quantified from the supernatant. […] In 11 × 34 mm PC tubes (Beckman Coulter, Brea, CA, USA), a 900 μL aliquot of samples was centrifuged for 16 h at 170,000× g and 20 °C applying a Beckman Coulter Optima MAX-XP tabletop ultracentrifuge (with MLA-130 fixed-angle rotor). Then a 200 μL volume of the supernatant was carefully removed and directly analyzed by HPLC-FLD (see in Section 3.6).
as §1, with “We applied an integrated HPLC system (Jasco, Tokyo, Japan) built up from an autosampler (AS-4050), a binary pump (PU-4180), and a fluorescence detector (FP-920). Chromatographic” for “Chromatographic”

[6] = tested on: HSA; details: cited from earlier work
[7] = cited from earlier work
[8] = linear fitting, whole ligand range 0–15 μM, PBS pH 7.4, λex 295 nm, λem 340 nm, mean ± SEM
[9] = evaluated in the 0.5–3 µM concentration range, PBS pH 7.4
[10] = evaluated in the 3–15 µM concentration range, PBS pH 7.4
[11] = non-linear fitting, whole ligand range 0–15 μM, PBS pH 7.4, mean ± SEM
[12] = linear fitting, K unit L/mol, ligand 5 μM, HSA 0–15 μM, PBS pH 7.4, 25 °C, mean ± SEM, read-out: UV-Vis Spectroscopy Scatchard Plot logK (converted)
[13] = non-linear fitting, K unit L/mol, ligand 5 μM, HSA 0–15 μM, PBS pH 7.4, 25 °C, mean ± SEM, read-out: UV-Vis Spectroscopy Hyperquad logK (converted)
[14] = ligand 0–20 μM, PBS pH 7.4, 30 kDa MWCO, HPLC-FLD

## CN(C)c1ccc(/N=N/c2ccc(S(=O)(=O)O)cc2)cc1 [MO, methyl orange]
[1]; pH 7.4, linear fitting, K unit L/mol, ligand 5 μM, HSA 0–15 μM, PBS pH 7.4, 25 °C, mean ± SEM, read-out: UV-Vis Spectroscopy Scatchard Plot logK (converted)
  Kd at 5 μM: 64.6 µM
[1]; pH 7.4, non-linear fitting, K unit L/mol, ligand 5 μM, HSA 0–15 μM, PBS pH 7.4, 25 °C, mean ± SEM, read-out: UV-Vis Spectroscopy Hyperquad logK (converted)
  Kd at 5 μM: 18.2 µM
[2]; human, human serum albumin (HSA) solution in PBS, non-linear fitting, whole ligand range 0–15 μM, PBS pH 7.4, mean ± SEM
  Kd: 14.8 µM
[2]; [8]
  Fluorescence Quenching Stern–Volmer Plot logKSV: 4.76 ± 0.02
[3]
  Effect on the fluorescence emission signal of WAR (WAR–HSA complex): strongly reduced
[4]; ligand 1 μM
  Effect on the filtered fraction of WAR (ultrafiltration): significantly reduced
[4]; ligand 2–20 μM
  Effect on the filtered fraction of WAR (ultrafiltration): further gradual decrease
[5]
  Effect on the unbound fraction of WAR in the supernatant (ultracentrifugation): considerably decreased
[6]; K in L/mol
  logK of the MO–HSA complex: 5.4
[6]
  binding constant of the MO–HSA complex: 230000 L/mol

## hemin
[1]
  Higher binding constant by Hyperquad evaluation of UV-Vis data: approximately 100 fold
[1]; linear fitting, K unit L/mol, ligand 5 μM, HSA 0–15 μM, PBS pH 7.4, 25 °C, mean ± SEM
  UV-Vis Spectroscopy Scatchard Plot logK: 5.74 ± 0.04
[1]; non-linear fitting, K unit L/mol, ligand 5 μM, HSA 0–15 μM, PBS pH 7.4, 25 °C, mean ± SEM
  UV-Vis Spectroscopy Hyperquad logK: 7.4 and 7.35 ± 0.03
[2]; [9]
  Fluorescence Quenching Hyperquad logK: 5.34 ± 0.01
  Fluorescence Quenching Stern–Volmer Plot logKSV: 5.23 ± 0.02
[2]; [10]
  Fluorescence Quenching Hyperquad logK: 5.53 ± 0.02
  Fluorescence Quenching Stern–Volmer Plot logKSV: 5.55 ± 0.03
[2]; [8]
  Fluorescence Quenching Stern–Volmer Plot logKSV: 5.54 ± 0.02
[2]; [11]
  Fluorescence Quenching Hyperquad logK: 5.49 ± 0.02
[3]
  Effect on the fluorescence emission signal of WAR (WAR–HSA complex): strongly reduced
[4]; ligand 1–5 μM
  Effect on the filtered fraction of WAR (ultrafiltration): decreased
[4]; ligand 10 and 20 μM
  Effect on the filtered fraction of WAR (ultrafiltration): gradual elevation

## C=CC1=C(C)/C(=C/C2=NC(=C\c3[nH]c(/C=C4\NC(=O)C(C)=C4C=C)c(C)c3CCC(=O)O)/C(CCC(=O)O)=C2C)NC1=O [BVD, biliverdin]
[1]; [12]
  Kd: 11 µM
[1]; [13]
  Kd: 2.82 µM
[2]; [8]
  Fluorescence Quenching Stern–Volmer Plot logKSV: 5.37 ± 0.03
[2]; [11]
  Kd: 3.55 µM
[3]
  Effect on the fluorescence emission signal of WAR (WAR–HSA complex): strongly reduced
[6]; K in L/mol
  logK of the BVD–HSA complex: ≈ 6
[6]
  binding constant of the BVD–HSA complex: approximately 10^6 L/mol

## CCCCCCCCCCCCCCCCCC(=O)O [stearic acid]
[3]; fatty acid 0–10 μM
  Increase in the emission intensity at 379 nm (WAR–HSA complex): ~2.5 fold
[4]; [14]
  Effect on the filtered fraction of WAR (ultrafiltration): decreased

## C=CC1=C(C)c2cc3[n-]c(cc4[n-]c(cc5nc(cc1n2)C(C)=C5C=C)c(C)c4CCC(=O)O)c(CCC(=O)O)c3C.[Fe+2] [heme]
[6]; Site I ligands: abacavir, efavirenz, zidovudine, furosemide, indomethacin, phenylbutazone
  Effect on the binding affinity of certain Site I ligands toward HSA: strongly decrease
[6]
  Effect on the binding constant of the WAR–HSA complex: only slightly reduced

## CC(=O)CC(c1ccccc1)c1c(O)c2ccccc2oc1=O (stereo not drawn) [WAR, warfarin]
[6]; spectroscopic, affinity chromatography and ultracentrifugation experiments
  binding constant (K) of WAR–HSA complex: approximately 2 × 10^5 L/mol
[7]
  plasma protein binding: ≈ 99%

## C=CC1=C(C)/C(=C/c2[nH]c(Cc3[nH]c(/C=C4\NC(=O)C(C)=C4C=C)c(C)c3CCC(=O)O)c(CCC(=O)O)c2C)NC1=O [BIL, bilirubin]
[1]
  Higher binding constant by Hyperquad evaluation of UV-Vis data: approximately 100 fold
[1]; [12]
  Kd: 1.48 µM
[1]; [13]
  Kd: 0.0295 µM
[2]; [8]
  Fluorescence Quenching Stern–Volmer Plot logKSV: 5.26 ± 0.01
[2]; [11]
  Kd: 4.47 µM
[3]
  Effect on the fluorescence emission signal of WAR (WAR–HSA complex): strongly reduced
[4]; [14]
  Effect on the filtered fraction of WAR (ultrafiltration): strongly increased
[4]; ligand 5 μM
  Effect on albumin binding of WAR (ultrafiltration): disrupted
[4]; ligand 20 μM
  Effect on albumin binding of WAR (ultrafiltration): almost completely abolished
[5]
  Effect on the unbound fraction of WAR in the supernatant (ultracentrifugation): significantly increased
